Source: patent US11166924B2, “N-methyl-d-aspartate receptor allosteric modulators and methods for their use” (Qingdao Primedicine Pharmaceutical Company, Ltd., priority 2016, dated 2021)

Tests used:
AMPAR = assay: AMPA-induced currents in cultured hippocampal neurons; format: cell-based
Description: Whole cell patch-clamp recordings were performed under voltage-clamp mode using an Axopatch 200B or 1D patch-clamp amplifier (Molecular Devices). Whole-cell currents were recorded at a holding potential of −60 mV unless indicated elsewhere, and signals were filtered at 2 kHz, digitized at 10 kHz (Digidata 1322A). Recording pipettes (3-5 MΩ) were filled with the intracellular solution that contained (mM): CsCl 140, HEPES 10, Mg-ATP 4, QX-314 5, pH 7.20; osmolarity, 290-295 mOsm. BAPTA (10 mM) was added in the intracellular solution (otherwise specified). The coverslips were continuously superfused with the extracellular solution containing (mM): NaCl 140, KCl 5.4, HEPES 10, CaCl2 1.3, glucose 20, pH 7.4; osmolarity, 305-315 mOsm. NMDA, GABA or AMPA induced currents were either applied by NMDA, GABA, AMPA either through perfusion fast-step (Warner Instruments). […]
Next, the inventor evaluated the selectivity profile for Npam02 on two other key ionotropic receptors of the central nervous system (CNS): α-amino-3-hydroxy-5-methyl-4-isoxazolepropionic acid receptor AMPAR, which are known to be a non-NMDA type ionotropic transmembrane receptor for glutamate that mediates fast synaptic transmission in the central nervous system (CNS) and GABA receptors which are the principal inhibitory ligand-gated ion channel receptor. […]

cortical neurons = assay: H2O2-induced cytotoxicity in cortical neurons; format: cell-based; details: in the absence of NVP-AAM007; FIG. 17

COc1cccc(/C=N/NC(=O)c2ccccc2C)c1O [Npam02, (E)-N′-(2-hydroxy-3-methoxybenzylidene)-2-methylbenzohydrazide]
Effect on AMPAR mediated currents (AMPAR): no observable effects

CCOc1cc(Cl)c(Cl)c(/C=N/NC(=O)c2ccccc2Br)c1O [Npam43, (E)-2-bromo-N′-(2,3-dichloro-5-ethoxy-6-hydroxybenzylidene)benzohydrazide]
H2O2-induced non-NMDAR dependent cytotoxicity (cortical neurons): reduced
